In patent US20250171463A1 (BIOGEN MA INC., priority 2022, published 2025):

Biological target: T1, EBP (Homo sapiens, UniProt Q15125)
T1 construct: HEK293T cells were utilized as the source of EBP enzyme; endogenous in cells; host or cells: HEK293T
Assay: EBP Functional Assay (EBP immunoaffinity LC-MS assay)
Assay type: biochemical
Settings: EBP enzyme from HEK293T cells; 30 min with inhibitor, then zymosterol-d5, 37° C., 4 h; percent conversion to dehydrolathosterol-d5 by LC-APCI MRM MS
Summary of the method: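 IC50 comes from a 4-parameter logistic fit of zymosterol-d5-to-product percent conversion, measured by LC-APCI MRM MS after sterol extraction. Compounds were preincubated 30 min with EBP from HEK293T cells before deuterated substrate was added for 4 h at 37° C; Tasin-1 served as reference.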

T1 sequence (Q15125 whole entry): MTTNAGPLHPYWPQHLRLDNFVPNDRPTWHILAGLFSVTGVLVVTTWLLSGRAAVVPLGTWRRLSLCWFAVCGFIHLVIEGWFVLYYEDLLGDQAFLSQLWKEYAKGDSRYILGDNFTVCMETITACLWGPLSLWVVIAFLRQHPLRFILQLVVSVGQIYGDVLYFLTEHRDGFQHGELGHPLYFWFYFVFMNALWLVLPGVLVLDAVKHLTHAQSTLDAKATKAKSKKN

Work on `O=S(=O)(c1cc(F)cc(F)c1)N1CCOC2(CCN(C3CC4(COC4)C3)C2)C1` (stereo not drawn) [Example 28, 9-((3,5-Difluorophenyl)sulfonyl)-2-(2-oxaspiro[3.3]heptan-6-yl)-6-oxa-2,9-diazaspiro[4.5]decane] yielded an IC50 of 0.1 to 0.25 µM.

With `COc1cc(S(=O)(=O)N2CC3(CN(C4CCOCC4)C3)C2)n(C)n1` [Example 97, 2-((3-methoxy-1-methyl-1H-pyrazol-5-yl)sulfonyl)-6-(tetrahydro-2H-pyran-4-yl)-2,6-diazaspiro[3.3]heptane] the IC50 was 0.25 to 4 µM.

Work on `O=S(=O)(c1ccc(OC(F)F)cc1)N1CCOC2(CCN(C3CCOC3)CC2)C1` (racemic) [Example 6, 4-((4-(Difluoromethoxy)phenyl)sulfonyl)-9-(tetrahydrofuran-3-yl)-1-oxa-4,9-diazaspiro[5.5]undecane] yielded an IC50 of 0.25 to 4 µM.

For `COCCN1CCC2(CC1)CN(S(=O)(=O)c1ccc(OC(F)F)cc1)CCO2` [Example 7, 4-((4-(Difluoromethoxy)phenyl)sulfonyl)-9-(2-methoxyethyl)-1-oxa-4,9-diazaspiro[5.5]undecane], the IC50 was 0.25 to 4 µM.

Compound `CCc1cc(C(F)(F)F)ncc1S(=O)(=O)N1CC2(CN(C3CCC(C)(O)CC3)C2)C1` (single isomer, unassigned) [Example 128, 4-(6-((4-ethyl-6-(trifluoromethyl)pyridin-3-yl)sulfonyl)-2,6-diazaspiro[3.3]heptan-2-yl)-1-methylcyclohexan-1-ol] has an IC50 of less than 0.1 µM.

Work on `Cn1nc(C(F)(F)F)cc1S(=O)(=O)N1CC2(CN(CC3CCOCC3)C2)C1` [Example 202, 2-((1-methyl-3-(trifluoromethyl)-1H-pyrazol-5-yl)sulfonyl)-6-((tetrahydro-2H-pyran-4-yl)methyl)-2,6-diazaspiro[3.3]heptane] yielded an IC50 of less than 0.1 µM.

`Cc1cc(C(F)(F)F)nc(C)c1S(=O)(=O)N1CC2(CN(CC3CCOC3)C2)C1` (racemic) [Example 103] was tested, and the IC50 was 0.1 to 0.25 µM.

`Cc1nc(C(F)F)ccc1S(=O)(=O)N1CC2(CN(C3CCOCC3)C2)C1` [Example 90, 2-((6-(difluoromethyl)-2-methylpyridin-3-yl)sulfonyl)-6-(tetrahydro-2H-pyran-4-yl)-2,6-diazaspiro[3.3]heptane] was tested, and the IC50 was 0.1 to 0.25 µM.

For `Cc1nc(OC(F)F)ccc1S(=O)(=O)N1CC2(CN(C3CC4(COC4)C3)C2)C1` [Example 95, 2-((6-(difluoromethoxy)-2-methylpyridin-3-yl)sulfonyl)-6-(2-oxaspiro[3.3]heptan-6-yl)-2,6-diazaspiro[3.3]heptane], the IC50 was 0.1 to 0.25 µM.

`Cc1nc(C(F)(F)F)ccc1S(=O)(=O)N1CC2(CN(CC3CC3C#N)C2)C1` (stereo not drawn) [Example 171] was tested, and the IC50 was 0.25 to 4 µM.

Work on `Cc1nc(C(F)(F)F)ccc1S(=O)(=O)N1CC2(CN(C(C)C3COC3)C2)C1` (single isomer, unassigned) [Example 159] yielded an IC50 of less than 0.1 µM.

`O=S(=O)(c1cnc(C(F)(F)F)cc1C1CC1)N1CC2(CN(C3CC4(COC4)C3)C2)C1` [Example 121, 2-((4-cyclopropyl-6-(trifluoromethyl)pyridin-3-yl)sulfonyl)-6-(2-oxaspiro[3.3]heptan-6-yl)-2,6-diazaspiro[3.3]heptane] showed an IC50 of 0.25 to 4 µM.

`Cc1nc(C(F)(F)F)ccc1S(=O)(=O)N1CC2(CN(CC34COC(C)(C3)C4)C2)C1` [Example 73, 2-((1-methyl-2-oxabicyclo[2.1.1]hexan-4-yl)methyl)-6-((2-methyl-6-(trifluoromethyl)pyridin-3-yl)sulfonyl)-2,6-diazaspiro[3.3]heptane] showed an IC50 of 0.1 to 0.25 µM.

In the case of `Cc1nc(C(F)(F)F)ccc1S(=O)(=O)N1CC2(CN(CC3CCOC3)C2)C1` (stereo not drawn) [Example 133], the IC50 is reported as 0.25 to 4 µM.

For `Cc1nc(C(F)(F)F)ccc1S(=O)(=O)N1CC2(CN(CC3(F)CCOCC3)C2)C1` [Example 188, 2-((4-fluorotetrahydro-2H-pyran-4-yl)methyl)-6-((2-methyl-6-(trifluoromethyl)pyridin-3-yl)sulfonyl)-2,6-diazaspiro[3.3]heptane], the IC50 was less than 0.1 µM.

For `Cc1nc(C(C)(F)F)ccc1S(=O)(=O)N1CC2(CN(CC3(C)CCOCC3)C2)C1` [Example 83], the IC50 was 0.1 to 0.25 µM.

For `Cc1nc(C(F)(F)F)ccc1S(=O)(=O)N1CC2(CN(C(C)C34COC(C)(C3)C4)C2)C1` (racemic) [Example 167, rac-2-(1-(1-methyl-2-oxabicyclo[2.1.1]hexan-4-yl)ethyl)-6-((2-methyl-6-(trifluoromethyl)pyridin-3-yl)sulfonyl)-2,6-diazaspiro[3.3]heptane], the IC50 was less than 0.1 µM.

`CCc1nc(C(F)F)ccc1S(=O)(=O)N1CC2(CN(C3CCC(C)(O)CC3)C2)C1` (stereo not drawn) [Example 208, (1s,4s)-4-(6-((6-(difluoromethyl)-2-ethylpyridin-3-yl)sulfonyl)-2,6-diazaspiro[3.3]heptan-2-yl)-1-methylcyclohexan-1-ol] gave an IC50 of 0.1 to 0.25 µM.
